Earlier results as cited in patent EP2749553A1, “Process for preparation of enantiomerically pure S-(+)-N, N-dimethyl-a-[2-(naphthalenyloxy)ethyl] benzenemethanamine” (Deva Holding Anonim Sirketi, priority 2012, dated 2014).

Columns and labels:
[1] = free base
[2] = clinical studies; (S)- versus (R)-enantiomer

For `CN(C)[C@@H](CCOc1cccc2ccccc12)c1ccccc1` [Dapoxetine, S-(+)-N, N-dimethyl-a-[2-(naphthalenyloxy)ethyl] benzenemethanamine], the in vivo solubility [1] is given as “poor”, the water solubility [1] is given as “poor” and the “times more potent than (R)-enantiomer” value [2] is given as 3.5 times. For the same compound, the in vivo absorption (free base) was “low”, the “initial plasma half life” value (plasma) was “about 1 h” and the initial half-life (rapid elimination) was 1 to 2 h.
